Experimental data published in PMC11555173, “Preparation and preliminary evaluation of a tritium-labeled allosteric P2X4 receptor antagonist” (Purinergic Signalling, 2024).
Entries after “also recorded” stand apart in the source; their conditions may differ. Like-named read-outs stand apart in the source and are kept apart here.

What was measured:
[1] = test system: P2X4 receptor; parameters: method as in PMID 36150180; conditions: ref [38]; cited from earlier work
[2] = molecular target: T1, human P2X4 receptor (Homo sapiens, UniProt Q99571); assay: [3H]PSB-OR-2020 radioligand binding assay, HEK293 cell membranes expressing human P2X4 receptor; parameters: expressed in transfected cells; host or cells: HEK293 cells, transient transfection (pQCXIN; pcDNA3.1(-) was also tried)
T1 sequence (Q99571 1-388): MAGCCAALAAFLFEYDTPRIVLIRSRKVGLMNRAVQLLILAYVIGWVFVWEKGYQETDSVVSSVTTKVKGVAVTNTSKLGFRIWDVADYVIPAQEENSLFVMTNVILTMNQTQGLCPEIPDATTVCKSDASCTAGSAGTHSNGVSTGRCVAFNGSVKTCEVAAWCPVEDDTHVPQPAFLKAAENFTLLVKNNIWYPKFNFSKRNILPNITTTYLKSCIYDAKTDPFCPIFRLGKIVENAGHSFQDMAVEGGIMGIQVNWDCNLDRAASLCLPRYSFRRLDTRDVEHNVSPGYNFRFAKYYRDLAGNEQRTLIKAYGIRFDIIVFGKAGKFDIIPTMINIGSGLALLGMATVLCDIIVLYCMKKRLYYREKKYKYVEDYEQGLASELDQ

[3] = test system: P2X4; parameters: method as in PMID 30537520, PMID 34476721; conditions: ref [14], [36]; cited from earlier work
[4] = molecular target: T1, human P2X4 receptor; parameters: expressed in transfected cells; host or cells: HEK293 cells, transient transfection (pQCXIN; pcDNA3.1(-) was also tried); conditions: ref Müller et al. [36]; cited from earlier work
[5] = molecular target: T2, human P2X1 (Homo sapiens, UniProt P51575); assay: Calcium influx assay, 1321N1 astrocytoma cells stably expressing human P2X1 receptor; format: cell-based
T2 construct: expressed in transfected cells
T2 sequence (P51575 1-399): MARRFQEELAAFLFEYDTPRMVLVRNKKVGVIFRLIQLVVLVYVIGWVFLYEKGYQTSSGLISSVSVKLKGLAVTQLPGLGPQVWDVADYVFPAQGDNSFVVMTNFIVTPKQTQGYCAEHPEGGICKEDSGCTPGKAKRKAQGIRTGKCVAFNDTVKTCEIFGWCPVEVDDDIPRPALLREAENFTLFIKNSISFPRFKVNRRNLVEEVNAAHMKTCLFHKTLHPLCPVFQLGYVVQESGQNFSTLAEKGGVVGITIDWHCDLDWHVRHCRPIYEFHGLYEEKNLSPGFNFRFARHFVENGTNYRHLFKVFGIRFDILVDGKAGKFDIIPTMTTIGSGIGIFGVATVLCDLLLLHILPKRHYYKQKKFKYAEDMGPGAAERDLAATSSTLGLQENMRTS
Protocol: (§1) The selectivity of PSB-OR-2020 versus other P2X receptor subtypes was determined in the same type of assay using 1321N1 astrocytoma cells stably expressing the respective human P2X receptor subtype (see Table 1).
(§2) To determine the effects of the compound on P2X4, P2X2, and P2X7 receptors, the agonist-mediated increases in cytosolic Ca^2+ concentrations were measured using the fluorescent Ca^2+ chelating dye Fluo-4 acetoxymethyl ester (AM) (Thermo Fisher Scientific). On the first day, 1321N1 astrocytoma cells (45.000 cells/well) stably expressing the respective P2X receptor were seeded into a 96-well plate (No. 3340, Corning, Kennebunk, Maine, USA), and incubated at 37 °C and 10% of CO2. […]
(§3) Following the incubation, the dye solution was carefully removed, and the antagonist (dissolved in DMSO) and HBSS buffer were added to the cells. […] To activate the receptors, transparent 96-well reagent plates (Boettger, Bodenmais, Germany) containing the agonists dissolved in HBSS buffer (10-fold concentration of previously determined EC80) were prepared. The plates were measured after 30 min of preincubation with antagonist with the imaging plate reader NOVOstar (BMG Labtech GmbH, Offenburg, Germany) at 520 nm for 30 s at 0.4 s intervals.

[6] = molecular target: T3, human P2X2 (Homo sapiens, UniProt Q9UBL9); assay: Calcium influx assay, 1321N1 astrocytoma cells stably expressing human P2X2 receptor; format: cell-based
T3 construct: expressed in transfected cells
T3 sequence (Q9UBL9 1-471): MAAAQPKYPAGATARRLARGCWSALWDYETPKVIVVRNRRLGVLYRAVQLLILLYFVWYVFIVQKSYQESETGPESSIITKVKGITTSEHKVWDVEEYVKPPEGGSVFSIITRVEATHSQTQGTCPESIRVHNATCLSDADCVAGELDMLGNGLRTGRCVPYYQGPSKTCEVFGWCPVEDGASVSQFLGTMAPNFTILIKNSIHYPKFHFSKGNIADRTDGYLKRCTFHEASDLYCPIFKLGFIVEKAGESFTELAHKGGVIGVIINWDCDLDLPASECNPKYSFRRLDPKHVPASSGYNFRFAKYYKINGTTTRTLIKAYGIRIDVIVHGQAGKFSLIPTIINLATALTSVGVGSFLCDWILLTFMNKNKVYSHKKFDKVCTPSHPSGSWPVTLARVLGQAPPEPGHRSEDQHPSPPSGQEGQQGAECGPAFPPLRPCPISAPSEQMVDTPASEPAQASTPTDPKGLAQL

[7] = molecular target: T4, human P2X3 (Homo sapiens, UniProt P56373); assay: Calcium influx assay, 1321N1 astrocytoma cells stably expressing human P2X3 receptor; format: cell-based
T4 construct: expressed in transfected cells
T4 sequence (P56373 1-397): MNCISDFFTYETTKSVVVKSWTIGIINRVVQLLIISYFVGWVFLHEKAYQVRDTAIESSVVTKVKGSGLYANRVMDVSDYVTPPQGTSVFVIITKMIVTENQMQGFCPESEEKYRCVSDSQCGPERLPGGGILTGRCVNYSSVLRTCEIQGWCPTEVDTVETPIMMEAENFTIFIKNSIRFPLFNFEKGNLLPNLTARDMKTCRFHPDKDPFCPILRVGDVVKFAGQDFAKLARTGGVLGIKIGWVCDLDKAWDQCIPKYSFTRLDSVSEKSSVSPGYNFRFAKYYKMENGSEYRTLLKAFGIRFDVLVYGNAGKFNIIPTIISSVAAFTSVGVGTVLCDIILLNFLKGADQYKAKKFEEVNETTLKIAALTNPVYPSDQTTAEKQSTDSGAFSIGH
Protocol: as §1, §2, §3

[8] = molecular target: T5, human P2X7 (Homo sapiens, UniProt Q99572); assay: Calcium influx assay, 1321N1 astrocytoma cells stably expressing human P2X7 receptor (agonist Bz-ATP); format: cell-based; conditions: Bz-ATP 6,000 nM (EC80)
T5 construct: expressed in transfected cells
T5 sequence (Q99572 1-595): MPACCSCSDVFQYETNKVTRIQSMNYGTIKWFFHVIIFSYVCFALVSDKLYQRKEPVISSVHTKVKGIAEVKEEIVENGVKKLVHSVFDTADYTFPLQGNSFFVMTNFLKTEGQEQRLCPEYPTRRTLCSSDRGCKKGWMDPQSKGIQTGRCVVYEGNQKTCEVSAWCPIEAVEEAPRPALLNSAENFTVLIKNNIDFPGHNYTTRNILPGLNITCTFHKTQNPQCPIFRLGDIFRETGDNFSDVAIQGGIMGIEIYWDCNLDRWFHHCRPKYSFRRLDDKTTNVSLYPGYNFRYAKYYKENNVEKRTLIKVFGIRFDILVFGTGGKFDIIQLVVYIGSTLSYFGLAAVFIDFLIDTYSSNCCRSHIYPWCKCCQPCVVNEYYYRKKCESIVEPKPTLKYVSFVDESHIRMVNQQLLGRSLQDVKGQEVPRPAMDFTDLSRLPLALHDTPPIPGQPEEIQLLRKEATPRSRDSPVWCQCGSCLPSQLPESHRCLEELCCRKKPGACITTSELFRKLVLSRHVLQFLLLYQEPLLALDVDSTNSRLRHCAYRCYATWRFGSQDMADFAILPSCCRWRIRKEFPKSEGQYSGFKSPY
Protocol: as §1, §2, §3

[9] = molecular target: T1, human P2X4 receptor; assay: Calcium influx assay, 1321N1 astrocytoma cells stably expressing human P2X4 receptor; format: cell-based; parameters: expressed in transfected cells
Protocol: Calcium influx assays using 1321N1 astrocytoma cells that stably expressed the human P2X4 receptor were performed. Concentration-dependent inhibition of ATP-induced calcium influx was observed.
as §2, §3

[10] = test system: P2X4 receptor; parameters: method as in PMID 35338432; conditions: ref [44]; cited from earlier work
[11] = high concentration of competitor, radioligand 10 nM
[12] = 4 °C, three independent association and dissociation experiments, read-out: kinetic KD value (koff/kon)
[13] = vs. [3H]PSB-OR-2020 (10 nM), HEK293 membranes, human P2X4, read-out: KD value, homologous competition binding
[14] = 4 °C, radioligand 10 nM, HEK293 membranes, human P2X4

In the case of `O=C1CC(=O)N(c2ccnc(-c3noc(=S)[nH]3)c2)c2ccc3ccccc3c2N1` [MRS4719], the “effects in a murine ischemic stroke model” value [1] is listed as “neuroprotective and neuro-rehabilitative effects”.
With `CC(C)c1cc(Br)c(NC(=O)Nc2cccnc2)c(Br)c1` [BX430, reference compound] the “displacement of [3H]PSB-OR-2020 from its binding site” value (shortened to “displacement”) [2, 11] was “not or only partially be displaced” and the “displacement” value ([2]; high concentrations of competitor, radioligand 10 nM) was “less than 40%”.
For `Cc1nsc(-c2ccc(C)c(NCC(=O)c3c[nH]c4ccccc34)c2)n1` [PSB-15417], the “efficacy in an animal model of neuropathic pain” value [3] is given as “showing efficacy”, the “displacement” value [2, 11] is given as “completely displaced” and the IC50 [4] is given as 21.9 nM.
For `Cc1nsc(-c2ccc(C)c(NCC(=O)N3CCc4c3cccc4[C@](C)(O)CO)c2)n1` [PSB-OR-2020, (S)-1-(4-(1,2-dihydroxypropane-2yl)indolin-1-yl)-2-((2-methyl-5-(3-methyl-1,2,4-thiadiazol-5-yl)phenyl)amino)ethane-1-one], the IC50 [5] was greater than 10000 nM, the IC50 [6] was greater than 10000 nM and the IC50 [7] was 2030 nM. The “IC50 at P2X3 receptor relative to IC50 at P2X4 receptor” value ([7]; P2X3 vs P2X4 selectivity) was “about 300 fold”, the IC50 [8] was greater than 10000 nM and the IC50 ([9]; read-out: IC50 ± SEM, inhibition of ATP-induced Ca2+ influx) was 6.32 ± 1.52 nM. The Kd [2, 12] was 7.06 ± 3.23 nM, the Bmax value ([2]; homologous competition binding, HEK293 membranes, human P2X4) was 71.7 fmol/mg of protein and the Kd [2, 13] was 20.4 ± 7.5 nM.
For `O=C1CC(=O)N(c2cccc(-c3noc(=S)[nH]3)c2)c2ccc3ccccc3c2N1` [NP-1815-PX], the “effects in a murine model of colitis” value [10] is given as “improve several inflammatory parameters”.
In the case of `[3H]c1cc2c(c([C@](C)(O)CO)c1)CCN2C(=O)CNc1cc(-c2nc(C)ns2)c([3H])cc1C` [[^3H]PSB-OR-2020], the association half-life [2, 14] is reported as 8.44 ± 2.59 min, the dissociation half-life [2, 14] is reported as 20.4 ± 2.9 min and the Kd [2, 12] is reported as 7.06 ± 3.23 nM. For the same molecule, the Kd [2, 13] was 20.4 nM.
In the case of `Nc1ncnc2c1ncn2[C@@H]1O[C@H](COP(=O)(O)OP(=O)(O)OP(=O)(O)O)[C@@H](O)[C@H]1O` [ATP, Adenosine 5’-triphosphate, reference compound], the “EC80 concentration of agonist” value ([9]; human P2X4, calcium influx) is reported as 300 nM and the “displacement” value [2, 11] is reported as “only slightly displaced; also recorded: does not compete”.
